Test system: human leukocytes (LTB4 production, calcium ionophore stimulated)
Test: Human Leukocyte LTB4 Inhibition Assay
Format: cell-based
Details: LTB4 by ELISA, read-out: LTB4 HLA IC50
Description: Human Leukocyte LTB4 Inhibition Assay
A non-limiting example of a human leukocyte inhibition assay is as follows; Blood was drawn from consenting human volunteers into heparanized tubes and 3% dextran 0.9% saline ⅓ rd volume added. After sedimentation of red blood cells a hypotonic lysis of remaining red blood cells was performed and leukocytes sedimented at 1200 rpm. The pellet was resuspended at 1.25×10^5 cells/ml and aliquoted into wells containing 1 μL 100% DMSO (vehicle) or 2.5 μL drug in 100% DMSO. Samples were incubated for 5 minutes at 37° C. and 2 μL calcium ionophore […] (from a 50 mM DMSO stock diluted just prior to the assay in Hanks balanced salt solution (Invitrogen)) to 1.25 mM) was added, solutions mixed and incubated for 30 minutes at 37° C. Samples were centrifuged at 1,200 rpm (−200×g) for 10 minutes at 4° C., plasma removed and a 1:4 dilution assayed for LTB4 concentration using ELISA (Assay Designs). Drug concentrations to achieve 50% inhibition (IC50's) of vehicle LTB4 were determined by nonlinear regression (Graphpad Prism) of % inhibition versus log drug concentration.

Row | SMILES | IC50
1 | CCC(O)(c1cn(Cc2ccn3c(-c4ccc(F)cc4)c(C(N)=O)cc3c2)nn1)C(F)(F)F (single isomer, unassigned) [Compound 1-10, 3-(4-Fluoro-phenyl)-7-[4-(1-hydroxy-1-trifluoromethyl-propyl)-[1,2,3]triazol-1-ylmethyl]-indolizine-2-carboxylic acid amide] | < 300 nM
2 | CCC(O)(c1nnc(NCc2ccn3c(-c4ccc(F)cc4)c(C(N)=O)cc3c2)o1)C(F)(F)F (single isomer, unassigned) [Compound 1-21, 3-(4-Fluoro-phenyl)-7-{[5-(1-hydroxy-1-trifluoromethyl-propyl)-[1,3,4]oxadiazol-2-ylamino]-methyl}-indolizine-2-carboxylic acid amide] | < 300 nM

Same assay, conditions: Leukocyte, LTB4 by ELISA, read-out: LTB4 HLA IC50

Row | SMILES | IC50
3 | CCC(O)(c1cn(Cc2ccn3c(-c4ccc(F)cc4)c(C(N)=O)cc3c2)nn1)C(F)(F)F (single isomer, unassigned) [Compound 1-9, 3-(4-Fluoro-phenyl)-7-[4-(1-hydroxy-1-trifluoromethyl-propyl)-[1,2,3]triazol-1-ylmethyl]-indolizine-2-carboxylic acid amide] | < 300 nM
4 | CCC(O)(c1nnc(NCc2ccn3c(-c4ccc(F)cc4)c(C(N)=O)cc3c2)o1)C(F)(F)F (single isomer, unassigned) [Compound 1-20, 3-(4-Fluoro-phenyl)-7-{[5-(1-hydroxy-1-trifluoromethyl-propyl)-[1,3,4]oxadiazol-2-ylamino]-methyl}-indolizine-2-carboxylic acid amide] | < 300 nM
5 | CCC(OC(=O)c1ccc([N+](=O)[O-])cc1)(c1cn(Cc2ccn3c(-c4ccc(C)nc4)c(C(N)=O)cc3c2)nn1)C(F)(F)F (single isomer, unassigned) [Compound 1-75, 4-Nitro-benzoic acid 1-{1-[2-carbamoyl-3-(6-methyl-pyridin-3-yl)-indolizin-7-ylmethyl]-1H-[1,2,3]triazol-4-yl}-1-trifluoromethyl-propyl ester] | > 1000 nM
6 | CCC(O)(c1cn(Cc2ccn3c(-c4ccc(C)nc4)c(C#N)cc3c2)nn1)C(F)(F)F (single isomer, unassigned) [Compound 1-76, 7-[4-(1-Hydroxy-1-trifluoromethyl-propyl)-[1,2,3]triazol-1-ylmethyl]-3-(6-methyl-pyridin-3-yl)-indolizine-2-carbonitrile] | < 300 nM
7 | CCOC(=O)c1cc2cc(Cn3cc(C(O)(CC)C(F)(F)F)nn3)ccn2c1C(C)C (single isomer, unassigned) [Compound 1-77, 7-[4-(1-Hydroxy-1-trifluoromethyl-propyl)-[1,2,3]triazol-1-ylmethyl]-3-isopropyl-indolizine-2-carboxylic acid ethyl ester] | < 300 nM
8 | CCC(O)(c1cn(Cc2ccn3c(-c4ccc(OC)nc4)c(C(N)=O)cc3c2)nn1)C(F)(F)F (single isomer, unassigned) [Compound 1-78, 7-[4-(1-Hydroxy-1-trifluoromethyl-propyl)-[1,2,3]triazol-1-ylmethyl]-3-(6-methoxy-pyridin-3-yl)-indolizine-2-carboxylic acid amide] | < 300 nM
9 | CCC(O)(c1cn(Cc2ccn3c(-c4ccc(OC)nc4)c(C#N)cc3c2)nn1)C(F)(F)F (single isomer, unassigned) [Compound 1-79, 7-[4-(1-Hydroxy-1-trifluoromethyl-propyl)-[1,2,3]triazol-1-ylmethyl]-3-(6-methoxy-pyridin-3-yl)-indolizine-2-carbonitrile] | < 300 nM
10 | CCC(O)(c1cn(Cc2ccn3c(-c4ccnc(C)c4)c(C#N)cc3c2)nn1)C(F)(F)F (single isomer, unassigned) [Compound 1-80, 7-[4-(1-Hydroxy-1-trifluoromethyl-propyl)-[1,2,3]triazol-1-ylmethyl]-3-(2-methyl-pyridin-4-yl)-indolizine-2-carbonitrile] | < 300 nM
11 | CCC(O)(c1cn(Cc2ccn3c(C(C)C)c(C#N)cc3c2)nn1)C(F)(F)F (single isomer, unassigned) [Compound 1-81, 7-[4-(1-Hydroxy-1-trifluoromethyl-propyl)-[1,2,3]triazol-1-ylmethyl]-3-isopropyl-indolizine-2-carbonitrile] | < 300 nM
12 | CCC(O)(c1cn(Cc2ccn3c(-c4ccc(OC)nc4)c(C(N)=O)c(C(=O)C(F)(F)F)c3c2)nn1)C(F)(F)F (single isomer, unassigned) [Compound 1-82, 7-[4-(1-Hydroxy-1-trifluoromethyl-propyl)-[1,2,3]triazol-1-ylmethyl]-3-(6-methoxy-pyridin-3-yl)-1-(2,2,2-trifluoro-acetyl)-indolizine-2-carboxylic acid amide] | > 1000 nM
13 | CCC(OC(=O)c1ccc([N+](=O)[O-])cc1)(c1cn(Cc2ccn3c(-c4ccc(OC)nc4)c(C(N)=O)cc3c2)nn1)C(F)(F)F (single isomer, unassigned) [Compound 1-83, 4-Nitro-benzoic acid 1-{1-[2-carbamoyl-3-(6-methoxy-pyridin-3-yl)-indolizin-7-ylmethyl]-1H-[1,2,3]triazol-4-yl}-1-trifluoromethyl-propyl ester] | 300 to 1000 nM
14 | CCOC(=O)c1c(C(=O)C(F)(F)F)c2cc(Cn3cc(C(CC)(OC(=O)c4ccc([N+](=O)[O-])cc4)C(F)(F)F)nn3)ccn2c1-c1ccc(OC)nc1 (single isomer, unassigned) [Compound 1-84, 3-(6-Methoxy-pyridin-3-yl)-7-{4-[1-(4-nitro-benzoyloxy)-1-trifluoromethyl-propyl]-[1,2,3]triazol-1-ylmethyl}-1-(2,2,2-trifluoro-acetyl)-indolizine-2-carboxylic acid ethyl ester] | 300 to 1000 nM
15 | CCOC(=O)c1cc2cc(Cn3cc(C(CC)(OC(=O)c4ccc([N+](=O)[O-])cc4)C(F)(F)F)nn3)ccn2c1-c1ccc(OC)nc1 (single isomer, unassigned) [Compound 1-85, 3-(6-Methoxy-pyridin-3-yl)-7-{4-[1-(4-nitro-benzoyloxy)-1-trifluoromethyl-propyl]-[1,2,3]triazol-1-ylmethyl}-indolizine-2-carboxylic acid ethyl ester] | 300 to 1000 nM
16 | CCOC(=O)c1cc2cc(Cn3cc(C(CC)(OC(=O)c4ccc([N+](=O)[O-])cc4)C(F)(F)F)nn3)ccn2c1 (single isomer, unassigned) [Compound 1-86, 7-{4-[1-(4-Nitro-benzoyloxy)-1-trifluoromethyl-propyl]-[1,2,3]triazol-1-ylmethyl}-indolizine-2-carboxylic acid ethyl ester] | < 300 nM
17 | CCOC(=O)c1cc2cc(Cn3cc(C(O)(CC)C(F)(F)F)nn3)ccn2c1Cl (single isomer, unassigned) [Compound 1-87, 3-Chloro-7-[4-(1-hydroxy-1-trifluoromethyl-propyl)-[1,2,3]triazol-1-ylmethyl]-indolizine-2-carboxylic acid ethyl ester] | < 300 nM
18 | CCC(O)(c1cn(Cc2ccn3c(Cl)c(C#N)cc3c2)nn1)C(F)(F)F (single isomer, unassigned) [Compound 1-88, 3-Chloro-7-[4-(1-hydroxy-1-trifluoromethyl-propyl)-[1,2,3]triazol-1-ylmethyl]-indolizine-2-carbonitrile] | < 300 nM
19 | CCC(O)(c1cn(Cc2ccn3c(Cl)c(C(N)=O)cc3c2)nn1)C(F)(F)F (single isomer, unassigned) [Compound 1-89, 3-Chloro-7-[4-(1-hydroxy-1-trifluoromethyl-propyl)-[1,2,3]triazol-1-ylmethyl]-indolizine-2-carboxylic acid amide] | > 1000 nM
20 | CCOC(=O)c1cc2cc(Sc3ncc(C(O)(CC)C(F)(F)F)s3)ccn2c1 (stereo not shown) [Compound 1-1, 7-[5-(1-Hydroxy-1-trifluoromethyl-propyl)-thiazol-2-ylsulfanyl]-indolizine-2-carboxylic acid ethyl ester] | < 300 nM
21 | CCC(O)(c1cnc(Sc2ccn3cc(C(=O)O)cc3c2)s1)C(F)(F)F (stereo not shown) [Compound 1-2, 7-[5-(1-Hydroxy-1-trifluoromethyl-propyl)-thiazol-2-ylsulfanyl]-indolizine-2-carboxylic acid] | > 1000 nM
22 | CCOC(=O)c1cc2cc(Cn3ncc(C(O)(CC)C(F)(F)F)n3)ccn2c1-c1ccc(F)cc1 (stereo not shown) [Compound 1-3, 3-(4-Fluoro-phenyl)-7-[4-(1-hydroxy-1-trifluoromethyl-propyl)-[1,2,3]triazol-2-ylmethyl]-indolizine-2-carboxylic acid ethyl ester] | < 300 nM
23 | CCOC(=O)c1cc2cc(Cn3cc(C(O)(CC)C(F)(F)F)nn3)ccn2c1-c1ccc(F)cc1 (stereo not shown) [Compound 1-4, 3-(4-Fluoro-phenyl)-7-[4-(1-hydroxy-1-trifluoromethyl-propyl)-[1,2,3]triazol-1-ylmethyl]-indolizine-2-carboxylic acid ethyl ester] | < 300 nM
24 | CCC(O)(c1cn(Cc2ccn3c(-c4ccc(F)cc4)c(C(=O)O)cc3c2)nn1)C(F)(F)F (stereo not shown) [Compound 1-5, 3-(4-Fluoro-phenyl)-7-[4-(1-hydroxy-1-trifluoromethyl-propyl)-[1,2,3]triazol-1-ylmethyl]-indolizine-2-carboxylic acid] | 300 to 1000 nM
25 | CCC(O)(c1cn(Cc2ccn3c(-c4ccc(F)cc4)c(C(N)=O)cc3c2)nn1)C(F)(F)F (stereo not shown) [Compound 1-6, 3-(4-Fluoro-phenyl)-7-[4-(1-hydroxy-1-trifluoromethyl-propyl)-[1,2,3]triazol-1-ylmethyl]-indolizine-2-carboxylic acid amide] | < 300 nM

Source: patent publication US20130005721A1, “INDOLIZINE INHIBITORS OF 5-LIPOXYGENASE” (PANMIRA PHARMACEUTICALS, LLC, priority 2009, published 2013)
